Assay results published in patent US9174997B2, “4-(4-cyano-2-thioaryl)dihydropyrimidinones and use thereof” (Bayer Intellectual Property GmbH, priority 2007, dated 2015).

What follows are molecules tested on rat hepatocytes (assay: Hepatocyte assay to determine the metabolic stability). Details: after incubation with rat hepatocytes.
Format: in vitro ADME
Protocol: B-6. Hepatocyte Assay to Determine the Metabolic Stability
The metabolic stability of test compounds in the presence of hepatocytes is determined by incubating the compounds with low concentrations (preferably below or around 1 μM) and with low cell counts (preferably 1*10^6 cells/ml) in order to ensure as far as possible linear kinetic conditions in the experiment. Seven samples of the incubation solution are taken in a fixed time pattern for the […] analysis in order to determine the half-life (i.e. the degradation) of the compound in each case. Various clearance parameters (CL) and Fmax values are calculated from this half-life (see below).
The Cl and Fmax values represent a measure of the phase 1 and phase 2 metabolism of the compounds in the hepatocytes. In order to minimize the influence of the organic solvent on the enzymes in the incubation mixtures, this concentration is generally limited to 1% (acetonitrile) or 0.1% (DMSO).
A cell count for hepatocytes in the liver of 1.1*10^8 cells/g of liver is used for calculation for all species and breeds.
The calculated parameters and their meaning are:
Representative values for the compounds according to the invention from this assay after incubation of the compounds with rat hepatocytes are shown in Table B below: […]

Q: Which results are given for `CN1CC2=C(C1=O)C(c1ccc(C#N)cc1S(C)(=O)=O)N(C(=O)NCCO)C(=O)N2c1cccc(C(F)(F)F)c1` (racemic) [Example 38, (rac)-4-[4-Cyano-2-(methylsulfonyl)phenyl]-N-(2-hydroxyethyl)-6-methyl-2,5-dioxo-1-[3-(trifluoromethyl)phenyl]-1,2,4,5,6,7-hexahydro-3H-pyrrolo[3,4-d]pyrimidine-3-carboxamide]?
A: CLblood, calculated blood clearance (well stirred model): 0.2 L/h/kg; Fmax, maximum possible bioavailability after oral administration (well-stirred): 96%

Q: With `CC1=C(C(N)=O)[C@@H](c2ccc(C#N)cc2S(C)(=O)=O)NC(=O)N1c1cccc(C(F)(F)F)c1` [Example 5, (4S)-4-[4-Cyano-2-(methylsulfonyl)phenyl]-6-methyl-2-oxo-1-[3-(trifluoromethyl)phenyl]-1,2,3,4-tetrahydropyrimidine-5-carboxamide] as the molecule, how does the “CLblood, calculated blood clearance (well stirred model)” value (from here on “CLblood, calculated blood clearance”) read?
A: The value was 0.0 L/h/kg.

Q: And the “Fmax, maximum possible bioavailability after oral administration (well-stirred)” value (“Fmax, maximum possible bioavailability” below)?
A: The value was 100%.

Q: Which “CLblood, calculated blood clearance” value does the source give for `CC1=C(C#N)[C@@H](c2ccc(C#N)cc2S(C)(=O)=O)NC(=O)N1c1cccc(C(F)(F)F)c1` [Example 6, (4S)-4-[4-Cyano-2-(methylsulfonyl)phenyl]-6-methyl-2-oxo-1-[3-(trifluoromethyl)phenyl]-1,2,3,4-tetrahydropyrimidine-5-carbonitrile] here?
A: The value was 0.2 L/h/kg.

Q: And the “Fmax, maximum possible bioavailability” value?
A: The value was 96%.

Q: What does the source list for `CC1=C(C#N)[C@@H](c2ccc(C#N)cc2S(C)(=O)=O)N(CC(=O)N2CCNC(=O)C2)C(=O)N1c1cccc(C(F)(F)F)c1` [Example 25, (4S)-4-[4-Cyano-2-(methylsulfonyl)phenyl]-6-methyl-2-oxo-3-[2-oxo-2-(3-oxopiperazin-1-yl)ethyl]-1-[3-(trifluoromethyl)phenyl]-1,2,3,4-tetrahydropyrimidine-5-carbonitrile]?
A: CLblood, calculated blood clearance (well stirred model): 0.3 L/h/kg; Fmax, maximum possible bioavailability after oral administration (well-stirred): 93%

Q: What does the source list for `CC1=C(C#N)[C@@H](c2ccc(C#N)cc2S(C)(=O)=O)N(S(=O)(=O)c2ccccc2OC(F)(F)F)C(=O)N1c1cccc(C(F)(F)F)c1` [Example 29, (4S)-4-[4-Cyano-2-(methylsulfonyl)phenyl]-6-methyl-3-{[2-(trifluoromethoxy)phenyl]sulfonyl}-2-oxo-1-[3-(trifluoromethyl)phenyl]-1,2,3,4-tetrahydropyrimidine-5-carbonitrile]?
A: CLblood, calculated blood clearance (well stirred model): 0.4 L/h/kg; Fmax, maximum possible bioavailability after oral administration (well-stirred): 90%

Q: With `CCS(=O)(=O)N1C(=O)N(c2cccc(C(F)(F)F)c2)C(C)=C(C#N)[C@H]1c1ccc(C#N)cc1S(C)(=O)=O` [Example 31, (4S)-4-[4-Cyano-2-(methylsulfonyl)phenyl]-6-methyl-3-(ethylsulfonyl)-2-oxo-1-[3-(trifluoromethyl)phenyl]-1,2,3,4-tetrahydropyrimidine-5-carbonitrile] as the molecule, how does the “CLblood, calculated blood clearance” value read?
A: Its value is 0.4 L/h/kg.

Q: What about the “Fmax, maximum possible bioavailability” value of the same molecule?
A: Its value is 91%.

Q: For `CC1=C(C#N)[C@@H](c2ccc(C#N)cc2S(C)(=O)=O)N(C)C(=O)N1c1cccc(C(F)(F)F)c1` [Example 33, (4S)-4-[4-Cyano-2-(methylsulfonyl)phenyl]-3,6-dimethyl-2-oxo-1-[3-(trifluoromethyl)phenyl]-1,2,3,4-tetrahydropyrimidine-5-carbonitrile], which “CLblood, calculated blood clearance” value is on record?
A: The value was 0.6 L/h/kg.

Q: What about the “Fmax, maximum possible bioavailability” value of the same molecule?
A: Its value is 87%.

Q: Which “CLblood, calculated blood clearance” value does the source give for `CC1=C(C#N)[C@@H](c2ccc(C#N)cc2S(C)(=O)=O)N(S(=O)(=O)c2cn(C)c(C)n2)C(=O)N1c1cccc(C(F)(F)F)c1` [Example 92] here?
A: The value was 0.7 L/h/kg.

Q: And the “Fmax, maximum possible bioavailability” value?
A: Its value is 83%.

Q: Which “CLblood, calculated blood clearance” value does the source give for `CC1=C(C#N)[C@@H](c2ccc(C#N)cc2S(C)(=O)=O)N(c2ccc(C#N)cc2)C(=O)N1c1cccc(C(F)(F)F)c1` [Example 117, (4S)-4-[4-Cyano-2-(methylsulfonyl)phenyl]-3-(4-cyanophenyl)-6-methyl-2-oxo-1-[3-(trifluoromethyl)phenyl]-1,2,3,4-tetrahydropyrimidine-5-carbonitrile] here?
A: The value was 0.1 L/h/kg.

Q: And the “Fmax, maximum possible bioavailability” value?
A: The value was 97%.

Q: Which “CLblood, calculated blood clearance” value does the source give for `CC1=C(C#N)[C@@H](c2ccc(C#N)cc2S(C)(=O)=O)N(c2cccc(C(F)(F)F)c2)C(=O)N1c1cccc(C(F)(F)F)c1` [Example 118, (4S)-4-[4-Cyano-2-(methylsulfonyl)phenyl]-6-methyl-2-oxo-1,3-bis[3-(trifluoromethyl)phenyl]-1,2,3,4-tetrahydropyrimidine-5-carbonitrile] here?
A: Its value is 0.6 L/h/kg.

Q: And the “Fmax, maximum possible bioavailability” value?
A: Its value is 86%.

Q: Which results are given for `CN1CC2=C(C1=O)[C@@H](c1ccc(C#N)cc1S(C)(=O)=O)N(C)C(=O)N2c1cccc(C(F)(F)F)c1` [Example 123, 4-(4S)-3,6-Dimethyl-2,5-dioxo-1-[3-(trifluoromethyl)phenyl]-2,3,4,5,6,7-hexahydro-1 H-pyrrolo[3,4-d]pyrimidin-4-yl-3-(methylsulfonyl)benzonitrile]?
A: CLblood, calculated blood clearance (well stirred model): 1.0 L/h/kg; Fmax, maximum possible bioavailability after oral administration (well-stirred): 75%

Q: Which “CLblood, calculated blood clearance” value does the source give for `CCS(=O)(=O)c1cc(C#N)ccc1[C@H]1NC(=O)N(c2cccc(C(F)(F)F)c2)C(C)=C1C#N` [Example 127, (4S)-4-[4-Cyano-2-(ethylsulfonyl)phenyl]-6-methyl-2-oxo-1-[3-(trifluoromethyl)phenyl]-1,2,3,4-tetrahydropyrimidine-5-carbonitrile] here?
A: Its value is 0.2 L/h/kg.

Q: What about the “Fmax, maximum possible bioavailability” value of the same molecule?
A: The value was 94%.

Q: What does the source list for `CCS(=O)(=O)c1cc(C#N)ccc1[C@@H]1C(C#N)=C(C)N(c2cccc(C(F)(F)F)c2)C(=O)N1S(C)(=O)=O` [Example 129, (4S)-4-[4-Cyano-2-(ethylsulfonyl)phenyl]-6-methyl-3-(methylsulfonyl)-2-oxo-1-[3-(trifluoromethyl)phenyl]-1,2,3,4-tetrahydropyrimidine-5-carbonitrile]?
A: CLblood, calculated blood clearance (well stirred model): 0.9 L/h/kg; Fmax, maximum possible bioavailability after oral administration (well-stirred): 79%

Each molecule was assayed against human neutrophil elastase (HNE) (Homo sapiens (Human), UniProt P08246) (assay: In vitro HNE inhibition assay). Details: HNE concentration of 80 pM; substrate MeOSuc-Ala-Ala-Pro-Val-AMC; 37° C. for 2 hours.
Chain of human neutrophil elastase (HNE) (P08246 30-267): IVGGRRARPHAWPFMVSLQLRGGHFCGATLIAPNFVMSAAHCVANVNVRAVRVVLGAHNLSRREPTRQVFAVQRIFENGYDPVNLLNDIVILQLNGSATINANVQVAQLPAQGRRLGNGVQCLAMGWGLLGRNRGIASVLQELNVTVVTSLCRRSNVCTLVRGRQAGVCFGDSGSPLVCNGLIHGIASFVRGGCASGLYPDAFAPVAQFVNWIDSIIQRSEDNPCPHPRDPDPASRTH
Format: biochemical
Protocol: B-1. In Vitro HNE Inhibition Assay
The potency of the compounds of the invention is ascertained in an in vitro inhibition assay. The HNE-mediated amidolytic cleavage of a suitable peptide substrate leads in this connection to an increase in the fluorescent light. The signal intensity of the fluorescent light is directly proportional to the enzyme activity.
Enzyme ([…]; from Serva, Heidelberg) and substrate (20 μM MeOSuc-Ala-Ala-Pro-Val-AMC; from Bachem, Weil am Rhein) are incubated in an assay volume of in total 50 μl of assay buffer (0.1 M HEPES pH 7.4, 0.5 M NaCl, 0.1% w/v BSA, 1% v/v DMSO) in a 384-well microtiter plate in the presence and absence of the test substance at 37° C. for 2 hours. […] The IC50 values are determined by plotting the intensity of the fluorescent light against the active substance concentration.

Q: With `CC1=C(C#N)C(c2ccc(C#N)cc2S(=O)(=O)CCO)NC(=O)N1c1cccc(C(F)(F)F)c1` (racemic) [Example 132, (rac)-4-[4-Cyano-2-((2-hydroxyethyl)sulfonyl)phenyl]-6-methyl-2-oxo-1-[3-(trifluoromethyl)phenyl]-1,2,3,4-tetrahydropyrimidine-5-carbonitrile] as the molecule, how does the IC50 read?
A: Its IC50 is 1.1 nM.

Q: `CC1=C(C#N)[C@@H](c2ccc(C#N)cc2S(C)(=O)=O)N(C(=O)OCc2ccccc2)C(=O)N1c1cccc(C(F)(F)F)c1` (stereo in doubt) [Example 120, Benzyl 5-cyano-6-[4-cyano-2-(methylsulfonyl)phenyl]-4-methyl-2-oxo-3-[3-(trifluoromethyl)phenyl]-3,6-dihydropyrimidine-1(2H)-carboxylate] was tested. Which IC50 did it give?
A: Its IC50 is < 0.3 nM.

Q: Which IC50 does the source give for `CC(=O)C1=C(C)N(c2cccc(C(F)(F)F)c2)C(=O)N[C@@H]1c1ccc(C#N)cc1S(C)(=O)=O` [Example 2, 4-{(4S)-5-Acetyl-6-methyl-2-oxo-1-[3-(trifluoromethyl)phenyl]-1,2,3,4-tetrahydropyrimidin-4-yl}-3-(methylsulfonyl)benzonitrile] here?
A: The IC50 was 10 nM.

Q: With `CC1=C(C#N)[C@@H](c2ccc(C#N)cc2S(C)(=O)=O)N(C(=O)NCCOCCO)C(=O)N1c1cccc(C(F)(F)F)c1` [Example 14, (6S)-5-Cyano-6-[4-cyano-2-(methylsulfonyl)phenyl]-N-[2-(2-hydroxyethoxy)ethyl]-4-methyl-2-oxo-3-[3-(trifluoromethyl)phenyl]-3,6-dihydropyrimidine-1(2H)-carboxamide] as the molecule, how does the IC50 read?
A: Its IC50 is < 0.3 nM.

Q: How did the IC50 turn out when `CC1=C(C#N)[C@@H](c2ccc(C#N)cc2S(C)(=O)=O)N(C(=O)N2CC[C@H](O)C2)C(=O)N1c1cccc(C(F)(F)F)c1` [Example 18, (4S)-4-[4-Cyano-2-(methylsulfonyl)phenyl]-3-{[(3S)-3-hydroxypyrrolidin-1-yl]carbonyl}-6-methyl-2-oxo-1-[3-(trifluoromethyl)phenyl]-1,2,3,4-tetrahydropyrimidine-5-carbonitrile] was run?
A: The IC50 was < 0.3 nM.

Q: For `CC1=C(C#N)[C@@H](c2ccc(C#N)cc2S(C)(=O)=O)N(C(=O)N2CCN(CCO)CC2)C(=O)N1c1cccc(C(F)(F)F)c1` [Example 20, (4S)-4-[4-Cyano-2-(methylsulfonyl)phenyl]-3-{[4-(2-hydroxyethyl)piperazin-1-yl]carbonyl}-6-methyl-2-oxo-1-[3-(trifluoromethyl)phenyl]-1,2,3,4-tetrahydropyrimidine-5-carbonitrile], which IC50 is on record?
A: The IC50 was 1.9 nM.

Q: Which IC50 does the source give for `CSc1cc(C#N)ccc1[C@H]1NC(=O)N(c2cccc(C(F)(F)F)c2)C(C)=C1C#N` [Example 41, (4S)-4-[4-Cyano-2-(methylsulfanyl)phenyl]-6-methyl-2-oxo-1-[3-(trifluoromethyl)phenyl]-1,2,3,4-tetrahydropyrimidine-5-carbonitrile] here?
A: Its IC50 is < 0.3 nM.
